Measured values from ChEMBL document CHEMBL1177798, “Interaction of aminoadamantane derivatives with the influenza A virus M2 channel-docking using a pore blocking model” (Bioorg Med Chem Lett, 2010).

Target: Matrix protein 2 (Influenza A virus, UniProt P06821)
Assay: Binding affinity to Influenza A Weybridge(H7N7) virus Matrix protein 2 by spectrophotometry; call rule not given here
Set-up: species or system Influenza A virus (A/chicken/FPV/Weybridge(H7N7))

Chain of Matrix protein 2 (P06821 whole entry): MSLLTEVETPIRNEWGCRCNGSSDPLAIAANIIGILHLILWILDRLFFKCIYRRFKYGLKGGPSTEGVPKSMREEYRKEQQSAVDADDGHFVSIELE

NC1CCCC1 [CYCLOPENTANAMINE]
Kd: Not Active
